Assay: Dynamic vapor sorption (DVS) adsorption/desorption
Format: physicochemical
Conditions: up to 95% RH; isothermal at 25° C.; water as solvent
Description: The Adsorption/Desorption determination was performed using a Q5000 V3.3 TGA-SA instrument. […] The ramp was isothermal at 25° C. Water was used as the solvent for all DVS analysis. The data was analyzed with the Universal Analysis 2000 software.

Structure (SMILES): Fc1ccccc1Cc1nc(-c2nc(C(F)(F)F)n[nH]2)cn2ccnc12 [Form A, 8-(2-fluorobenzyl)-6-(3-(trifluoromethyl)-1H-1,2,4-triazol-5-yl)imidazo[1,2-a]pyrazine]
- moisture picked up (DVS): less than 0.4%

Source: patent US12122782B2, “Crystalline forms of 8-(2-fluorobenzyl)-6-(3-(trifluoromethyl)-1H-1,2,4-triazol-5-yl)imidazo[1,2-a]pyrazine as sGC stimulators” (Tisento Therapeutics Inc., priority 2018, dated 2024)
